Reference: patent US10407467B2, “Polymyxin derivatives and their use in combination therapy together with different antibiotics” (priority 2013, dated 2019)
Bridge positions count the residues as written; N and C are the ends. Square brackets hold non-standard residues; d marks the D form. Peptide text beside a SMILES is read from it. * marks the point of attachment. ξ: configuration not given here. ξβ3hGly(cHex) = NC(CC(=O)*)C1CCCCC1; Thr(3ξ) = CC(O)[C@H](N)C(=O)O; Dab = NCC[C@H](N)C(=O)O

Tests used:
[1] = tested on: Klebsiella pneumoniae ATCC10031; conditions: 10 mg/kg/day, neutropenic mice thigh infection
[2] = tested on: Escherichia coli isolate ATCC25922; conditions: 10 mg/kg/day (5 mg/kg BID subcutaneous), neutropenic CD-1 mice, 24 h post-infection
[3] = tested on: Acinetobacter baumannii; assay: MIC, sole activity (no second agent); type: cell-based
Outline: (§1)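 Compound tested without a second agent in cation-adjusted MHB, up to four strains per species, inoculum at 0.5 McFarland from colonies grown 18-24 h on Mueller-Hinton agar. Run in duplicate, invalid beyond 2-fold disagreement, lower duplicate or modal repeat value given, expressed relative to Polymyxin B.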

[4] = tested on: Pseudomonas aeruginosa; assay: MIC, sole activity (no second agent); type: cell-based
Outline: as §1

[5] = tested on: Escherichia coli; assay: MIC, sole activity (no second agent); type: cell-based
Outline: as §1

[6] = tested on: Klebsiella pneumoniae; assay: MIC, sole activity (no second agent); type: cell-based
Outline: as §1

[7] = Second Agent none (Table 7B, by row order)

CC(C)C[C@@H]1NC(=O)[C@@H](Cc2ccccc2)NC(=O)[C@H](CCN)NC(=O)[C@@H](NC(=O)[C@H](CCN)NC(=O)[C@@H](NC(=O)CC(N)C2CCCCC2)C(C)O)CCNC(=O)[C@H](C(C)O)NC(=O)[C@H](CCN)NC(=O)[C@H](CCN)NC1=O (stereo partly drawn) [Example 10, [3(R,S)-3-Amino-3-cyclohexane-propanoyl]Polymyxin B nonapeptide] ({ξβ3hGly(cHex)}-[Thr(3ξ)][Dab][Dab][Dab][dF]L[Dab][Dab][Thr(3ξ)]; lactam 3-C)
reduction in bacterial counts [1]: approx. 2 log10
reduction in bacterial counts [2]: over 3 log10
MIC A. baumannii NCTC 13424 [3, 7]: 2 micrograms/mL
MIC A. baumannii NCTC 13424 ([3]; Second Agent none (Table 7E)): 0.5 micrograms/mL
MIC A. baumannii NCTC 13424 ([3]; Table 7F, A. baumannii NCTC 13424, second agent none): 0.5 micrograms/mL
MIC A. baumannii NCTC 13424 ([3]; Table 7H, A. baumannii NCTC 13424, second agent none): 0.5 micrograms/mL
MIC A. baumannii ATCC13424 ([3]; in the absence of Rifampicin, strain ATCC13424): 1 micrograms/mL
MIC A. baumannii ATCCBAA-747 ([3]; in the absence of Rifampicin, strain ATCCBAA-747): 0.5 micrograms/mL
MIC A. baumannii CCUG57249 ([3]; in the absence of Rifampicin, strain CCUG 57249): 0.5 micrograms/mL
MIC A. baumannii NCTC 13423 ([3]; in the absence of Rifampicin, strain NCTC13423): 0.125 micrograms/mL
MIC P. aeruginosa CCUG 59626 ([4]; P. aeruginosa CCUG 59626, second agent none): 0.25 micrograms/mL
MIC P. aeruginosa ATCC 27853 [4, 7]: 0.25 micrograms/mL
MIC P. aeruginosa CCUG 59626 [4, 7]: 0.25 micrograms/mL
MIC P. aeruginosa CCUG 59626 ([4]; Second Agent none (Table 7C)): 0.25 micrograms/mL
MIC P. aeruginosa ATCC 10145 ([4]; Second Agent none (Table 7E)): 0.25 micrograms/mL
MIC P. aeruginosa ATCC 10145 ([4]; Table 7F, P. aeruginosa ATCC 10145, second agent none): 0.25 micrograms/mL
MIC P. aeruginosa ATCC 10145 ([4]; Table 7H, P. aeruginosa ATCC 10145, second agent none): 0.25 micrograms/mL
MIC P. aeruginosa ATCC 27853 ([4]; in the absence of Rifampicin, strain ATCC27853): 0.5 micrograms/mL
MIC P. aeruginosa ATCC-47 ([4]; in the absence of Rifampicin, strain ATCC-47): 1 micrograms/mL
MIC P. aeruginosa ATCCCRM-9027 ([4]; in the absence of Rifampicin, strain ATCCCRM-9027): 0.25 micrograms/mL
MIC P. aeruginosa CCUG 59626 ([4]; in the absence of Rifampicin, strain CCUG 59626): 0.25 micrograms/mL
MIC E. coli NCTC9001 ([5]; E. coli NCTC9001, second agent none): 4 micrograms/mL
MIC E. coli NCTC9001 ([5]; Second Agent none (Table 7A)): 4 microgram/mL
MIC E. coli ATCC25922 ([5]; Second Agent none (Table 7B)): 4 micrograms/mL
MIC E. coli CCUG 59342 ([5]; Second Agent none (Table 7B)): 0.5 micrograms/mL
MIC E. coli NCTC9001 ([5]; Second Agent none (Table 7B)): 8 micrograms/mL
MIC E. coli NCTC9001 ([5]; Second Agent none (Table 7C)): 4 micrograms/mL
MIC E. coli ATCC25922 ([5]; Second Agent none (Table 7E)): 8 micrograms/mL
MIC E. coli NCTC 13441 ([5]; Second Agent none (Table 7E)): 8 micrograms/mL
MIC E. coli ATCC25922 ([5]; Table 7F, E. coli ATCC25922, second agent none): 8 micrograms/mL
MIC E. coli NCTC 13441 ([5]; Table 7F, E. coli NCTC 13441, second agent none): 8 micrograms/mL
MIC E. coli ATCC25922 ([5]; Table 7G, E. coli ATCC25922, second agent none): 8 micrograms/mL
MIC E. coli ATCC25922 ([5]; Table 7H, E. coli ATCC25922, second agent none): 8 micrograms/mL
MIC E. coli NCTC 13441 ([5]; Table 7H, E. coli NCTC 13441, second agent none): 8 micrograms/mL
MIC E. coli ATCC25922 ([5]; Table 7I, E. coli ATCC25922, second agent none): 8 micrograms/mL
MIC E. coli ATCC25922 ([5]; in the absence of Rifampicin, strain ATCC25922): 2 micrograms/mL
MIC E. coli NCTC9001 ([5]; in the absence of Rifampicin, strain NCTC9001): 4 micrograms/mL
MIC K. pneumoniae ATCC BAA-1706 ([6]; K. pneumoniae ATCC BAA-1706, second agent none): 0.5 micrograms/mL
MIC K. pneumoniae CCUG 59348 ([6]; K. pneumoniae CCUG 59348, second agent none): >32 micrograms/mL
MIC K. pneumoniae NCTC 13442 ([6]; K. pneumoniae NCTC 13442, second agent none): >32 micrograms/mL
MIC K. pneumoniae CCUG 59348 ([6]; Second Agent none (Table 7A)): >32 microgram/mL
MIC K. pneumoniae CCUG 59626 ([6]; Second Agent none (Table 7A)): 0.25 microgram/mL
MIC K. pneumoniae NCTC 13442 ([6]; Second Agent none (Table 7A)): >32 microgram/mL
MIC K. pneumoniae CCUG 59348 ([6]; Second Agent none (Table 7B)): >32 micrograms/mL
MIC K. pneumoniae NCTC 13442 ([6]; Second Agent none (Table 7B)): >32 micrograms/mL
MIC K. pneumoniae ATCC 4352 [6, 7]: 0.5 micrograms/mL
MIC K. pneumoniae ATCC BAA-1706 [6, 7]: 0.5 micrograms/mL
MIC K. pneumoniae CCUG 59348 ([6]; Second Agent none (Table 7C)): >32 micrograms/mL
MIC K. pneumoniae NCTC 13442 ([6]; Second Agent none (Table 7C)): >32 micrograms/mL
MIC K. pneumoniae ATCC 4352 ([6]; Second Agent none (Table 7E)): 1 micrograms/mL
MIC K. pneumoniae CCUG 59349 ([6]; Second Agent none (Table 7E)): 8 micrograms/mL
MIC K. pneumoniae ATCC 4352 ([6]; Table 7F, K. pneumoniae ATCC4352, second agent none): 1 micrograms/mL
MIC K. pneumoniae CCUG 59349 ([6]; Table 7F, K. pneumoniae CCUG 59349, second agent none): 8 micrograms/mL
MIC K. pneumoniae ATCC 4352 ([6]; Table 7G, K. pneumoniae ATCC4352, second agent none): 1 micrograms/mL
MIC K. pneumoniae ATCC 4352 ([6]; Table 7H, K. pneumoniae ATCC4352, second agent none): 1 micrograms/mL
MIC K. pneumoniae CCUG 59349 ([6]; Table 7H, K. pneumoniae CCUG 59349, second agent none): 8 micrograms/mL
MIC K. pneumoniae ATCC 4352 ([6]; Table 7I, K. pneumoniae ATCC4352, second agent none): 1 micrograms/mL
MIC K. pneumoniae ATCC 4352 ([6]; in the absence of Rifampicin, strain ATCC 4352): 1 micrograms/mL
MIC K. pneumoniae ATCC-BAA2146 ([6]; in the absence of Rifampicin, strain ATCC-BAA2146): 32 micrograms/mL
MIC K. pneumoniae CCUG-59348 ([6]; in the absence of Rifampicin, strain CCUG-59348): >32 micrograms/mL
